From patent publication US12344610B2, “APOL1 inhibitors and methods of use” (Maze Therapeutics, Inc., priority 2022, dated 2025)

How the values were obtained:
Format in all cases: cell-based
[1] = test system: HEK293 cells overexpressing APOL1 G2; assay: APOL1 G2 HEK293 cell rescue assay (reversal of cell death caused by overexpression of APOL1); details: Homo sapiens, HEK293, HEK293 overexpressing APOL1 G2; geometric mean of at least 2 assay runs; † = single assay run
In short: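 EC50 is the half-maximal effective concentration for reversing cell death driven by APOL1 G2 overexpression in HEK293 cells. Reported as geometric mean of at least 2 runs on separate days, each run averaging duplicate wells per plate; some values from a single run.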

[2] = test system: Trypanosoma brucei Lister 427 VSG221 with APOL1 G0 recombinant protein; assay: APOL1 G0 trypanosome cell rescue assay (Example B5); details: Trypanosoma brucei, 20 h, read-out: APOL1 G0 Trypanosome Rescue EC50, Trypanosoma brucei Lister 427 VSG221 with APOL1 G0 recombinant protein, 20 hours, CellTiter-Glo; geometric mean of at least 2 assay runs; † = single assay run
In short: (§1)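 Recombinant mature APOL1 (residues 28-398, His-tag removed, E. coli-expressed, refolded from inclusion bodies, DDM buffer) at […] added with 250 trypanosomes/well in modified HMI-9 media. Duplicate 11-point 2-fold compound series, 0.4% DMSO; 20 h at 37° C, 5% CO2, then CellTiter-Glo luminescence for viability.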

[3] = test system: Trypanosoma brucei Lister 427 VSG221 with APOL1 G1 recombinant protein; assay: APOL1 G1 trypanosome cell rescue assay (Example B5); details: Trypanosoma brucei, 20 h, read-out: APOL1 G1 Trypanosome Rescue EC50, Trypanosoma brucei Lister 427 VSG221 with APOL1 G1 recombinant protein, 20 hours, CellTiter-Glo; geometric mean of at least 2 assay runs; † = single assay run
In short: as §1

In the case of O=C1CCc2cc(OCCN3CCC4(CC3)C(=O)Nc3ccc(Cl)cc34)cnc2N1[C@H]1C[C@@](O)(C2CC2)C1 (single isomer, unassigned) [Compound 297, 5-chloro-1′-[2-({7-oxo-8-[(trans)-3-cyclopropyl-3-hydroxycyclobutyl]-5,6,7,8-tetrahydro-1,8-naphthyridin-3-yl}oxy)ethyl]-1,2-dihydrospiro[indole-3,4′-piperidin]-2-one], the EC50 [1] is reported as 0.0318 µM, the EC50 [2] is reported as 0.0726 µM and the EC50 [3] is reported as 0.0854 µM.

C[C@]1(O)C[C@H](N2C(=O)CCc3cc(OCCN4CCC5(CC4)C(=O)Nc4ccc(Cl)cc45)cnc32)C1 (single isomer, unassigned) [Compound 307, 5-chloro-1′-[2-({7-oxo-8-[(trans)-3-hydroxy-3-methylcyclobutyl]-5,6,7,8-tetrahydro-1,8-naphthyridin-3-yl}oxy)ethyl]-1,2-dihydrospiro[indole-3,4′-piperidin]-2-one] showed an EC50 [1] of 0.0204 µM, an EC50 [2] of 0.0657 µM and an EC50 [3] of 0.0797 µM.

For CS(=O)(=O)c1ccc(OCCN2CCC3(CC2)C(=O)N(CCO)c2ccc(Cl)cc23)cc1 [Compound 18, 5-chloro-1-(2-hydroxyethyl)-1′-[2-(4-methanesulfonylphenoxy)ethyl]-1,2-dihydrospiro[indole-3,4′-piperidin]-2-one], the EC50 [1] was 0.225 µM, the EC50 [2] was 0.69 µM and the EC50 [3] was 1.54 µM.

Work on COCCN1C(=O)C2(CCN(CCOc3ccc(S(C)(=O)=O)cc3)CC2)c2cc(Cl)ccc21 [Compound 20, 5-chloro-1′-[2-(4-methanesulfonylphenoxy)ethyl]-1-(2-methoxyethyl)-1,2-dihydrospiro[indole-3,4′-piperidin]-2-one] yielded an EC50 [1] of 0.294 µM, an EC50 [2] of 0.798 µM and an EC50 [3] of 0.949 µM.

CN1C(=O)C2(CCN(CCOc3ccc(S(=O)(=O)CCCS(C)(=O)=O)cc3)CC2)c2cc(Cl)ccc21 [Compound 23, 5-chloro-1′-{2-[4-(3-methanesulfonylpropanesulfonyl)phenoxy]ethyl}-1-methyl-1,2-dihydrospiro[indole-3,4′-piperidin]-2-one] was tested, and the EC50 [1] was 0.135 µM, the EC50 [2] was 0.321 µM and the EC50 [3] was 0.612 µM.

Compound CS(=O)(=O)c1ccc(OCCN2CCC3(CC2)C(=O)N(CCO)c2ccc(Br)cc23)cc1 [Compound 24, 5-bromo-1-(2-hydroxyethyl)-1′-[2-(4-methanesulfonylphenoxy)ethyl]-1,2-dihydrospiro[indole-3,4′-piperidin]-2-one] has an EC50 [1] of 0.24 µM, an EC50 [2] of 0.513 µM and an EC50 [3] of 0.759 µM.

In the case of COCCN1C(=O)C2(CCN(CCOc3ccc(S(C)(=O)=O)cc3)CC2)c2cc(C#N)ccc21 [Compound 25, 1′-[2-(4-methanesulfonylphenoxy)ethyl]-1-(2-methoxyethyl)-2-oxo-1,2-dihydrospiro[indole-3,4′-piperidine]-5-carbonitrile], the EC50 [1] is reported as 1.31 µM, the EC50 [2] is reported as greater than 4 µM and the EC50 [3] is reported as greater than 4 µM.

CS(=O)(=O)c1ccc(OCCN2CCCC3(CC2)C(=O)Nc2ccccc23)cc1 (stereo not drawn) [Compound 26, 1-(2-(4-(methylsulfonyl)phenoxy)ethyl)spiro[azepane-4,3′-indolin]-2′-one] was tested, and the EC50 [1] was 1.76 µM, the EC50 [2] was greater than 4 µM and the EC50 [3] was greater than 4 µM.

For CN1C(=O)CCc2cc(OCCN3CCC4(CC3)C(=O)Nc3ccc(Cl)cc34)ccc21 [Compound 27, 5-chloro-1′-[2-[(1-methyl-2-oxo-3,4-dihydroquinolin-6-yl)oxy]ethyl]spiro[indoline-3,4′-piperidine]-2-one], the EC50 [1] was 0.062 µM, the EC50 [2] was 0.201 µM and the EC50 [3] was 0.269 µM.

O=C1CCc2cc(OCCN3CCC4(CC3)C(=O)Nc3ccc(Cl)cc34)cnc2N1CCO [Compound 192, 5-chloro-1′-(2-{[8-(2-hydroxyethyl)-7-oxo-5,6,7,8-tetrahydro-1,8-naphthyridin-3-yl]oxy}ethyl)-1,2-dihydrospiro[indole-3,4′-piperidin]-2-one] was tested, and the EC50 [1] was 0.0411 µM, the EC50 [2] was 0.108 µM and the EC50 [3] was 0.142 µM.

For CC(=O)N(C)CCS(=O)(=O)c1ccc(OCCN2CCC3(CC2)C(=O)Nc2ccc(Cl)cc23)cc1 [Compound 193, N-{2-[4-(2-{5-chloro-2-oxo-1,2-dihydrosiro[indole-3,4′-piperidin]-1′-yl}ethoxy)benzenesulfonyl]ethyl}-N-methylacetamide], the EC50 [1] was 0.155 µM, the EC50 [2] was 0.2 µM and the EC50 [3] was 0.288 µM.

Work on CS(=O)(=O)C1(c2ccc(OCCN3CCC4(CC3)C(=O)Nc3ccc(Cl)cc34)cc2)COC1 [Compound 195, 5-chloro-1′-{2-[4-(3-methanesulfonyloxetan-3-yl)phenoxy]ethyl}-1,2-dihydrospiro[indole-3,4′-piperidin]-2-one] yielded an EC50 [1] of 0.0394 µM, an EC50 [2] of 0.0482 µM and an EC50 [3] of 0.0744 µM.

With O=C1Nc2ccc(Cl)cc2C12CCN(CCOc1ccc3c(c1)CCS3(=O)=O)CC2 [Compound 196, 5-(2-{5-chloro-2-oxo-1,2-dihydrospiro[indole-3,4′-piperidin]-1′-yl}ethoxy)-2,3-dihydro-1λ^6-benzothiophene-1,1-dione] the EC50 [1] was 0.0919 µM, the EC50 [2] was 0.16 µM and the EC50 [3] was 0.185 µM.

CS(=O)(=O)c1ccc(OCCN2CCC3(CC2)C(=O)Nc2ccc(Cl)cc23)cc1C(F)F [Compound 197, 5-chloro-1′-{2-[3-(difluoromethyl)-4-methanesulfonylphenoxy]ethyl}-1,2-dihydrospiro[indole-3,4′-piperidin]-2-one] was tested, and the EC50 [1] was 0.0323 µM, the EC50 [2] was 0.0303 µM and the EC50 [3] was 0.193 µM.

O=C1Nc2ccc(Cl)cc2C12CCN(CCOc1ccc(S(=O)(=O)CCO)cc1)CC2 [Compound 198, 5-chloro-1′-{2-[4-(2-hydroxyethanesulfonyl)phenoxy)ethyl}-1,2-dihydrospiro[indole-3,4′-piperidin]-2-one] gave an EC50 [1] of 0.0631 µM, an EC50 [2] of 0.107 µM and an EC50 [3] of 0.142 µM.

Work on CS(=O)(=O)Nc1ccc(OCCN2CCC3(CC2)C(=O)Nc2ccc(Cl)cc23)cc1 [Compound 214, N-[4-(2-{5-chloro-2-oxo-1,2-dihydrospiro[indole-3,4′-piperidin]-1′-yl}ethoxy)phenyl]methanesulfonamide] yielded an EC50 [1] of 0.079 µM, an EC50 [2] of 0.25 µM and an EC50 [3] of 0.43 µM.

Work on O=C1Nc2ccc(Cl)cc2C12CCN(CCOc1ccc(S(=O)(=O)[C@H]3C[C@H](O)C3)cc1)CC2 [Compound 215, 5-chloro-1′-[2-(4-{[(trans)-3-hydroxycyclobutyl]sulfonyl}phenoxy)ethyl]-1,2-dihydrospiro[indole-3,4′-piperidin]-2-one] yielded an EC50 [1] of 0.0798 µM, an EC50 [2] of 0.0701 µM and an EC50 [3] of 0.097 µM.

CS(=O)(=O)c1ccc(OCCN2CCC3(CC2)C(=O)Nc2ccc(Cl)cc23)cc1C(O)CO (stereo not drawn) [Compound 216, 5-chloro-1′-{2-[3-(1,2-dihydroxyethyl)-4-methanesulfonylphenoxy]ethyl}-1,2-dihydrospiro[indole-3,4′-piperidin]-2-one] showed an EC50 [1] of 0.281 µM, an EC50 [2] of 0.629 µM and an EC50 [3] of 0.912 µM.

Work on O=C1CCc2cc(OCCN3CCC4(CC3)C(=O)Nc3ccc(Cl)cc34)ccc2N1[C@H]1C[C@H](O)C1 [Compound 224, 5-chloro-1′-[2-({2-oxo-1-[(trans)-3-hydroxycyclobutyl]-1,2,3,4-tetrahydroquinolin-6-yl}oxy)ethyl]-1,2-dihydrospiro[indole-3,4′-piperidin]-2-one] yielded an EC50 [1] of 0.0386 µM, an EC50 [2] of 0.066 µM and an EC50 [3] of 0.0928 µM.

In the case of O=C1Nc2ccc(Cl)cc2C12CCN(CCOc1ccc(S(=O)(=O)C3(CO)CC3)cc1)CC2 [Compound 225, 5-chloro-1′-[2-(4-{[1-(hydroxymethyl)cyclopropyl]sulfonyl}phenoxy)ethyl]-1,2-dihydrospiro[indole-3,4′-piperidin]-2-one], the EC50 [1] is reported as 0.0326 µM, the EC50 [2] is reported as 0.0352 µM and the EC50 [3] is reported as 0.0508 µM.

Work on CNC(=O)C1(S(=O)(=O)c2ccc(OCCN3CCC4(CC3)C(=O)Nc3ccc(Cl)cc34)cc2)CC1 [Compound 226, 1-[4-(2-{5-chloro-2-oxo-1,2-dihydrospiro[indole-3,4′-piperidin]-1′-yl}ethoxy)benzenesulfonyl]-N-methylcyclopropane-1-carboxamide] yielded an EC50 [1] of 0.043 µM, an EC50 [2] of 0.08 µM and an EC50 [3] of 0.112 µM.

CN(C)C(=O)C1(S(=O)(=O)c2ccc(OCCN3CCC4(CC3)C(=O)Nc3ccc(Cl)cc34)cc2)CC1 [Compound 227, 1-[4-(2-{5-chloro-2-oxo-1,2-dihydrospiro[indole-3,4′-piperidin]-1′-yl}ethoxy)benzenesulfonyl]-N,N-dimethylcyclopropane-1-carboxamide] gave an EC50 [1] of 0.047 µM, an EC50 [2] of 0.142 µM and an EC50 [3] of 0.248 µM.

O=C1Nc2ccc(Cl)cc2C12CCN(CCOc1ccc(S(=O)(=O)C3(C(=O)N4CCC4)CC3)cc1)CC2 [Compound 228, 1′-[2-(4-{[1-(azetidine-1-carbonyl)cyclopropyl]sulfonyl}phenoxy)ethyl]-5-chloro-1,2-dihydrospiro[indole-3,4′-piperidin]-2-one] gave an EC50 [1] of 0.101 µM, an EC50 [2] of 0.196 µM and an EC50 [3] of 0.363 µM.

Compound CNC(=O)c1ccc(OCCN2CCC3(CC2)C(=O)Nc2ccc(Cl)cc23)cc1F [Compound 229, 4-(2-{5-chloro-2-oxo-1,2-dihydrospiro[indole-3,4′-piperidin]-1′-yl}ethoxy)-2-fluoro-N-methylbenzamide] has an EC50 [1] of 0.128 µM, an EC50 [2] of 0.417 µM and an EC50 [3] of 0.778 µM.
